According to patent publication US9937192B2, “Combination therapy to treat mycobacterium diseases” (priority 2012, dated 2018):
Where a name gives a salt, the structure may show the parent alone. Read-outs that look alike come from different tables or passages of the source.

Tests used:
[1] = tested on: intracellular M. tuberculosis in THP-1 cells; assay: microbe, parasite or virus in culture; type: cell-based; conditions: Mycobacterium tuberculosis, H37RA
[2] = tested on: M. tuberculosis; assay: microbe, parasite or virus in culture; type: cell-based; conditions: Mycobacterium tuberculosis
[3] = tested on: nonreplicating M. tuberculosis; assay: Low-Oxygen-Recovery Assay (LORA) MIC; type: cell-based; conditions: Mycobacterium tuberculosis, read-out: LORA MIC
Source text: MIC Determination in the Low-Oxygen-Recovery Assay (LORA) for Nonreplicating M. tuberculosis
Screening for new antimicrobial agents is routinely conducted only against actively replicating bacteria. However, it is now widely accepted that a physiological state of non-replicating persistence (NRP) is responsible for antimicrobial tolerance in many bacterial infections. In tuberculosis, the key to shortening the 6-month regimen lies in targeting this NRP subpopulation. […] Cho S H, Want S, Wan B, Hwang C H, Pauli G F, Franzblau S G; “Low-Oxygen-Recovery Assay for High-Throughput Screening of Compounds against Nonreplicating Mycobacterium tuberculosis” Antimicrob Agents Chemother. 2007 April; 51(4): 1380-1385 doi: 10.1128/AAC.00055-06.

[4] = Seven-Day Oral (Gavage) Toxicity and Toxicokinetics Study in Rats; type: in vivo, Crl:CD(SD) rats; conditions: male rats
Source text: Seven-Day Oral (Gavage) Toxicity and Toxicokinetics Study in Rats
Crl:CD(SD) rats were obtained from Charles River Laboratories of Stone Ridge, N.Y. The animals were laboratory bred and experimentally naïve. Rats were chosen because they are a species that is commonly used for nonclinical toxicity evaluations.
Animals received the test article or vehicle by oral gavage for 7 consecutive days and were terminated the day following completion of dosing. The first day of dosing was designated as Day 1 of the study. The animals were evaluated for changes in clinical signs, body weight, and other parameters as described below.
The vehicle and test article were administered by oral gavage once daily for 7 consecutive days at a dose volume of 10 mL/kg body weight for Group A and Groups B-D, respectively. The test article and vehicle were administered by oral gavage twice daily, approximately 8 hours apart, for 7 consecutive days at a dose volume of 10 mL/kg body weight for Group E and Group F, respectively. The actual volume administered to each animal was calculated and adjusted based on the most recent body weight of each animal.
During the treatment period, daily cageside observations were made and recorded predose and postdose (following the first dose only). The postdosing observations made during treatment occurred at the following times based on Cmax/Tmax for the two compounds from previous studies:
Prior to start of dosing, body weights were measured for randomization on Day 1. During the treatment, body weights were measured on Day 1 and Day 7. In addition, fasted body weights were measured prior to necropsy for calculation of organ/body weight ratios.
Throughout the study, food consumption was measured daily starting 3 days prior to start of dosing.
Blood samples for evaluation of hematology, coagulation, and serum chemistry parameters were collected from all animals from the retro-orbital plexus (under CO2/O2 anesthesia, for the main study animals) or jugular vein cannula (for the toxicokinetic animals) prior to necropsy. Due to residual heparin used to keep the cannulas patent for the toxicokinetic animals, coagulation samples from these rats, were not able to be analyzed. The animals were fasted overnight prior to blood collection. On the day of blood collection for clinical pathology analyses, the animals were not necropsied until after the blood was collected and the samples judged to be acceptable by the clinical pathology group.
On the 1st and 7th day of dosing, blood samples (approximately 0.5 mL/sample) were collected from the jugular vein cannula for all toxicokinetic animals at the timepoints listed below into K3EDTA-containing tubes. […] Prior to each collection, a small sample of blood (with heparin blocking solution) was removed from the cannula and discarded. A new syringe was placed on the cannula, and the protocol-required sample was taken. The syringe with the blood sample was removed, and a new syringe with saline attached to the cannula. Blood volume was replaced with an equal volume of saline and then blocking solution placed in the cannula. Each animal was returned to its cage until the next collection timepoint.
For all animals euthanized at scheduled necropsies, the kidneys, liver, and prostate gland were weighed. Following weighing, an approximate 1 gram sample of liver and kidney was weighed, transferred to Precellys 7 mL CK28 Tissue Homogenizing tubes (Cat. No. 0904-01), snap-frozen, and analyzed.
For all animals scheduled for the terminal necropsy, the kidneys, liver, and prostate were embedded in paraffin, sectioned and stained with hematoxylin and eosin for further examination by light microscopy. For Groups A, D, E, and F only, the remaining tissues listed above were embedded in paraffin, sectioned and stained with hematoxylin and eosin for further examination by light microscopy. […]

[5] = tested on: M. avium; assay: MIC in bacterial broth culture (7H9 with ADC, visual or resazurin); type: cell-based; conditions: Table 31, duplicate values
[6] = tested on: M. smegmatis; assay: as above; type: cell-based; conditions: Mycolicibacterium smegmatis, Table 31
[7] = tested on: intracellular M. tuberculosis in J774 cells; assay: Efficacy against intracellular M. tuberculosis (luciferase) in J774 cells; type: cell-based; conditions: Mycobacterium tuberculosis, J774, 120 h
[8] = 300 mg/kg twice a day vs controls treated twice a day

CCNC(=O)Nc1nc2cc(-c3cnc(C(C)(C)O)nc3)c(F)c([C@H]3CCCO3)c2[nH]1 [Compound 23A, methanesulfonic acid salt of 1-ethyl-3-[6-fluoro-5-[2-(1-hydroxy-1-methyl-ethyl)pyrimidin-5-yl]-7-[(2R)-tetrahydrofuran-2-yl]-1H-benzimidazol-2-yl]urea]
IC50 ([1]; THP-1, 120 h, read-out: Mtb H37Ra in THP1 Cells (IC50)): 0.03 µg/mL | MIC ([1]; read-out: MIC, Macrophage Cells): 0.03 µg/mL | MIC ([2]; GN9, Table 31, Mtb GN9, duplicate values, read-out: MIC): 0.03 µg/mL | MIC ([2]; H37RA, read-out: MIC, Broth): 0.01 µg/mL | MIC ([2]; H37RV, Table 33, M. tuberculosis strain H37Rv, read-out: MIC): 0.125 µg/mL | MIC ([2]; Table 32, […], duplicate values, read-out: MIC): 0.125 µg/mL | MIC ([2]; Table 33, M. tuberculosis strain AH13, read-out: MIC): 0.5 µg/mL | MIC ([2]; Table 33, M. tuberculosis strain BW9, read-out: MIC): 0.125 µg/mL | MIC ([2]; Table 33, M. tuberculosis strain H10460, read-out: MIC): 0.5 µg/mL | MIC ([2]; Table 33, M. tuberculosis strain MC19062, read-out: MIC): 0.125 µg/mL | MIC ([2]; Table 33, M. tuberculosis strain W10, read-out: MIC): 0.125 µg/mL | MIC [3]: 0.25 µg/mL | AST [4, 8]: statistically higher | mean ALT [4, 8]: statistically higher | mean calcium ion concentration (CA) [4, 8]: statistically lower | dose levels at which no adverse toxicity was demonstrated ([4]; 7 days oral gavage): ≤ 600 mg/kg/day | adverse observations or effects on mean body weight ([4]; 7 days oral gavage, all dose groups): No adverse observations or effects on mean body weight | histopathological findings ([4]; any dose regimen): No test article-related histopathological findings | NOEL (No-Observable-Effect-Level) ([4]; once a day for 7 days orally via gavage): 100 mg/kg | exposures for different dosage levels ([4]; toxicokinetics): dose related | Mean food consumption ([4]; twice daily 300 mg/kg, not considered adverse): reduced | MIC ([5]; Mycobacterium avium, M. avium 103, read-out: MIC): 0.12 µg/mL | MIC ([5]; Mycobacterium avium, M. avium 3404.4, read-out: MIC): 0.23 µg/mL | MIC ([5]; Mycobacterium avium, M. avium Far, read-out: MIC): 0.23 µg/mL | MIC ([5]; M. avium 103): 0.23 µg/mL | MIC [6]: 6.25 µg/mL | IC50 ([7]; ERDMAN, read-out: Mtb Erdman in J774 Cells (IC50)): < 0.17 µg/mL | IC50 ([7]; H37RV, read-out: Mtb H37Rv in J774 Cells (IC50)): 0.21 µg/mL | IC50 ([7]; read-out: Mtb CDC1551 in J774 Cells (IC50)): 0.12 µg/mL
